From patent US12016314B2, “MicroRNA inhibitor therapy in systemic lupus erythematosus” (Ohio State Innovation Foundation, priority 2017, dated 2024)

B1: prolactin: hormone prolactin (Sigma), 10 ng/mL (protein, UniProt P01236 29-227, looked up)
Prolactin: LPICPGGAARCQVTLRDLFDRAVVLSHYIHNLSSEMFSEFDKRYTHGRGFITKAINSCHTSSLATPEDKEQAQQMNQKDFLSLIVSILRSWNEPLYHLVTEVRGMQEAPEAILSKAVEIEEQTKRLLEGMELIVSQVHPETKENEIYPVWSGLPSLQMADEESRLSAYYNLLHCLRRDSHKIDNYLKLLKCRIIHNNNC

Legend:
IL-12 = IL-12 secretion of THP-1 cells (ELISA); assay type: cell-based, human; conditions: 24 h
THP-1 cells = test: Nanoparticle tracking analysis of extracellular vesicle production by THP-1 cells; assay type: cell-based, human
Experimental: (§1) To target autologous EVs containing miR-21, primary human PBMCs were isolated from whole blood as indicated above, incubated in the presence of 20% autogolous serum, and treated with locked nucleic acid (LNA) sequences designed to antagonize miR-21 (Exiqon, Vedbaek, Denmark) following liposomal complexing with DOTAP (Roche) according to the manufacturer's protocol.
The NanoSight LM 10 system (NanoSight, Wiltshire, United Kingdom) was used to measure the rate of Brownian motion of particles to determine the size and quantification of EVs. Briefly, the sample was injected in a NanoSight cubicle and the size of particles was obtained by determining the motion in fluid passing across the chamber. The number of particles per milliliter was measured from a 0-160 nm range and was acquired from both experimental and control samples for comparison using area under the curve calculations obtained via the linear trapezoidal analysis method.

IL-13 = IL-13 secretion of THP-1 cells (ELISA); assay type: cell-based, human; conditions: 24 h
TLR8 = TLR8 mRNA expression in primary human macrophages incubated with autologous serum; assay type: cell-based; conditions: primary human macrophages of healthy donors, 24 h
Experimental: RNA was quantitated using a NanoDrop 1000 spectrophotometer (NanoDrop Products, Wilmington, DE). cDNA was synthesized using High Capacity cDNA Reverse Transcription Kit (Applied Biosystems, Foster City, CA) following the manufacturer's protocol and qPCR was performed using the TaqMan system (Applied Biosystems) using cDNA and gene specific primers in accordance with the manufacturer's protocol.
as §1

STAT1 = STAT1 mRNA transcript expression (qPCR) in hematopoietic cell lines THP-1 and K562; conditions: THP-1 cells, separate hormone treatments, normalized to untreated cells

Row | Molecule | reduction of TLR8 mRNA expression relative to LNA-control (TLR8) | hormonal influence on STAT1 expression (STAT1) | further results
1 | CCOCc1nc2c(N)nc3ccccc3c2n1CC(C)(C)O [R-848] | – | – | IL-12 expression induced compared to control treatment (IL-12): 5 fold; cumulative extracellular particle profiles (0-160 nm, area under the curve) relative to miR-control (THP-1 cells): 3.7 fold; IL-13 expression upregulated relative to miR-control pseudoexosomes (IL-13): 1.75 fold
2 | CCN(CC)CCCC(C)Nc1ccnc2cc(Cl)ccc12 (centres unmarked) [Chloroquine, chloroquine] | over 95% | – | –
3 | CC(=O)[C@H]1CC[C@H]2[C@@H]3CCC4=CC(=O)CC[C@]4(C)[C@H]3CC[C@]12C [progesterone] | – | hormonal influence was only observed with estrogen treatment | –
4 | LNA antagomiR-21: locked nucleic acid sequence designed to block miR-21, in liposomal complexes with DOTAP; CAACATCAGTCTGATAAGCT (LNA-modified, pattern not given here, delivered in liposomal complexes) | 46% | – | –
5 | C[C@]12CCC(=O)C[C@@H]1CC[C@@H]1[C@@H]2CC[C@]2(C)[C@@H](O)CC[C@@H]12 [dihydrotestosterone, 5α-androstatin-17β-ol-one] | – | hormonal influence was only observed with estrogen treatment | –
6 | B1 | – | hormonal influence was only observed with estrogen treatment | –
